Assay results as given in ChEMBL document CHEMBL3407376, “Identification of novel class of falcipain-2 inhibitors as potential antimalarial agents” (Bioorg Med Chem, 2015).
Activity calls are given as the source filed them. The rule behind the calls is not given here.

How the values were obtained:
Plasmodium falciparum [1] = test: Antimalarial activity against Plasmodium falciparum 3D7 infected in human erythrocytes after 48 hrs by SYBR green assay; format: functional, organism-based
Falcipain 2 = target: T1, Falcipain 2 (Plasmodium falciparum, UniProt Q9N6S8); test: Inhibition of Plasmodium falciparum recombinant falcipain-2 using ZFR-AMC as substrate after 30 mins by fluorometric assay
T1 sequence (Q9N6S8 whole entry): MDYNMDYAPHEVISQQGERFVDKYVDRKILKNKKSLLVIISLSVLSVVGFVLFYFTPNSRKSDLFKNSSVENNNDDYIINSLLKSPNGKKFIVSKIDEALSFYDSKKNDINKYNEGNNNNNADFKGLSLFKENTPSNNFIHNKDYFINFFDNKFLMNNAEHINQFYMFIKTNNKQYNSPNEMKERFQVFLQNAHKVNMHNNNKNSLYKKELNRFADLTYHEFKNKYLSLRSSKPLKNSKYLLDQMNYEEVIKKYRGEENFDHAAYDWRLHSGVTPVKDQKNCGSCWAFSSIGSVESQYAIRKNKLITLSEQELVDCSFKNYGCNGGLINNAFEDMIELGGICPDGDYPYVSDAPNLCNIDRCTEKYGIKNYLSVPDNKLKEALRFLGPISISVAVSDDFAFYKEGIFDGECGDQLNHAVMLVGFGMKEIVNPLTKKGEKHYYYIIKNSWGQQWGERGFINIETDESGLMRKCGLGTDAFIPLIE

CHO = test: Cytotoxicity against CHO cells after 24 hrs by WST-1 assay; format: cell-based; conditions: Cricetulus griseus
Plasmodium falciparum [2] = test: Antimalarial activity against asexual stage Plasmodium falciparum assessed as abnormal parasites after 60 hrs relative to control; format: functional, organism-based
Plasmodium falciparum [3] = test: Antimalarial activity against Plasmodium falciparum Dd2 infected in human erythrocytes after 48 hrs by SYBR green assay; format: functional; conditions: Dd2, 48 h
Plasmodium falciparum [4] = test: Antimalarial activity against Plasmodium falciparum isolate MCamp infected in human erythrocytes after 48 hrs by SYBR green assay; format: functional, organism-based
Plasmodium falciparum [5] = test: Selectivity ratio of EC50 for Plasmodium falciparum Dd2 to EC50 for Plasmodium falciparum 3D7; format: functional
Plasmodium falciparum [6] = test: Selectivity ratio of EC50 for Plasmodium falciparum isolate MCamp to EC50 for Plasmodium falciparum 3D7; format: functional
[7] = Selectivity ratio of IC50 for CHO cells to IC50 for Plasmodium falciparum; format: ADME, cell-based; conditions: hamster, read-out: Ratio IC50
Plasmodium falciparum [8] = test: Antimalarial activity against asexual stage Plasmodium falciparum assessed as growth arrest at trophozoite stage after 32 to 60 hrs relative to control; format: functional, organism-based
Plasmodium falciparum [9] = test: Antimalarial activity against asexual stage Plasmodium falciparum assessed as abnormal food vacuole after 32 to 46 hrs relative to control; format: functional, organism-based
Plasmodium falciparum [10] = test: Antimalarial activity against asexual stage Plasmodium falciparum assessed as morphological abnormalities after 32 to 46 hrs relative to control; format: functional, organism-based
Plasmodium falciparum [11] = test: Selectivity ratio of EC50 for Plasmodium falciparum 3D7 to EC50 for Plasmodium falciparum Dd2; format: functional
[12] = Plasmodium falciparum, 3D7, 48 h, read-out: IC50

Row | IC50 (Plasmodium falciparum [1]; [12]) [µM] | Ki (Falcipain 2) [µM] | Structure (SMILES) | IC50 (CHO) [µM] | also measured
1 | 9.7 | 0.4 | CC(C)C[C@H](NC(=O)[C@H](CC(C)C)NC(=O)N1CCCCC1)C(=O)N[C@@H](Cc1c[nH]c2ccccc12)C(=O)N1CCC[C@H]1COc1ccc(F)cc1 | – | –
2 | 0.9 | 1.1 | CC(C)C[C@H](NC(=O)[C@H](CC(C)C)NC(=O)N1CCOCC1)C(=O)N[C@H](C(=O)N1CCC[C@H]1COc1ccc(F)cc1)c1ccccc1 | 168 | Activity (Plasmodium falciparum [2]): Active; EC50 (Plasmodium falciparum [3]): 7.5 µM; EC50 (Plasmodium falciparum [4]): 12.1 µM; Ratio EC50 (Plasmodium falciparum [5]): 8; Ratio EC50 (Plasmodium falciparum [6]): 8; selectivity ratio [7]: 150; Activity (Plasmodium falciparum [8]): Active
3 | 10 | 0.4 | CC(C)C[C@H](NC(=O)[C@H](CC(C)C)NC(=O)N1CCOCC1)C(=O)N[C@@H](Cc1c[nH]c2ccccc12)C(=O)N1CCC[C@H]1COc1ccc(F)cc1 | – | –
4 | – | 7.49 | CC(C)C[C@H](NC(=O)CN1CCN(C)CC1)C(=O)N[C@@H](CC(C)C)C(=O)N[C@@H](Cc1c[nH]c2ccccc12)C(=O)N1CCC[C@H]1COc1ccc(F)cc1 | – | IC50 (Plasmodium falciparum [1]): Not Active
5 | 14.2 | 0.8 | CC(C)C[C@H](NC(=O)[C@H](CC(C)C)NC(=O)N1CCCCC1)C(=O)N[C@@H](Cc1ccccc1)C(=O)NNc1ccccc1 | 99 | –
6 | – | > 10 | CC(C)C[C@H](NC(=O)CN1CCC(CCO)CC1)C(=O)N[C@@H](CC(C)C)C(=O)N[C@H](C(=O)N1CCC[C@H]1COc1ccc(F)cc1)c1ccccc1 | – | IC50 (Plasmodium falciparum [1]): Not Active
7 | 35.7 | 0.3 | COc1ccc(OC[C@@H]2CCCN2C(=O)[C@H](Cc2ccccc2)NC(=O)[C@H](CC(C)C)NC(=O)[C@H](CC(C)C)NC(=O)N2CCCCC2)cc1 | 40 | –
8 | 18.8 | 6.2 | CC(C)C[C@H](NC(=O)CN1CCC(CCO)CC1)C(=O)N[C@@H](CC(C)C)C(=O)N[C@@H](Cc1c[nH]c2ccccc12)C(=O)N1CCN=C1COc1ccc(F)cc1 | – | –
9 | 10.2 | 0.3 | CC(C)C[C@H](NC(=O)[C@H](CC(C)C)NC(=O)N1CCOCC1)C(=O)N[C@@H](Cc1ccccc1)C(=O)N1CCC[C@H]1COc1ccc(F)cc1 | 53 | –
10 | 5.5 | 0.2 | CC(C)C[C@H](NC(=O)[C@H](CC(C)C)NC(=O)N1CCCCC1)C(=O)N[C@@H](Cc1c[nH]c2ccccc12)C(=O)N1CCN=C1COc1ccc(F)cc1 | > 468 | Activity (Plasmodium falciparum [9]): Active; Activity (Plasmodium falciparum [10]): Active; Activity (Plasmodium falciparum [2]): Active; EC50 (Plasmodium falciparum [3]): 1.7 µM; EC50 (Plasmodium falciparum [4]): 6.6 µM; Ratio EC50 (Plasmodium falciparum [11]): 3; Activity (Plasmodium falciparum [8]): Active
11 | – | 8.6 | CC(C)C[C@H](NC(=O)N1CCOCC1)c1nc(C(=O)N[C@@H](Cc2ccccc2)C(=O)N2CCC[C@H]2COc2ccc(F)cc2)co1 | – | IC50 (Plasmodium falciparum [1]): Not Active
12 | 16.7 | 2.53 | CC(C)C[C@H](NC(=O)CN1CCC(O)CC1)C(=O)N[C@@H](CC(C)C)C(=O)N[C@@H](Cc1c[nH]c2ccccc12)C(=O)N1CCC[C@H]1COc1ccc(F)cc1 | – | –
13 | 6.7 | 3.29 | CC(C)C[C@H](NC(=O)CN1CCC(CCO)CC1)C(=O)N[C@@H](CC(C)C)C(=O)N[C@@H](Cc1c[nH]c2ccccc12)C(=O)N1CCC[C@H]1COc1ccc(F)cc1 | – | –
14 | – | 1.3 | CC(C)C[C@H](NC(=O)[C@H](CC(C)C)NC(=O)N1CCCCC1)C(=O)N[C@H](C(=O)N1CCC[C@H]1COc1ccc(F)cc1)c1ccccc1 | – | IC50 (Plasmodium falciparum [1]): Not Active
15 | 5.2 | 0.8 | CC(C)C[C@H](NC(=O)[C@H](CC(C)C)NC(=O)N1CCCCC1)C(=O)N[C@H](C(=O)N1CCN=C1COc1ccc(F)cc1)c1ccccc1 | – | Activity (Plasmodium falciparum [2]): Active; EC50 (Plasmodium falciparum [3]): 1.9 µM; EC50 (Plasmodium falciparum [4]): 1.2 µM; Ratio EC50 (Plasmodium falciparum [11]): 3; Activity (Plasmodium falciparum [8]): Active
16 | 6.7 | 4.6 | COC(=O)C1CCN(CC(=O)N[C@@H](CC(C)C)C(=O)N[C@@H](CC(C)C)C(=O)N[C@@H](Cc2c[nH]c3ccccc23)C(=O)N2CCC[C@H]2COc2ccc(F)cc2)CC1 | > 500 | –
17 | 27.9 | 0.6 | CC(C)C[C@H](NC(=O)c1ccco1)C(=O)N[C@@H](CC(C)C)C(=O)N[C@@H](Cc1ccccc1)C(=O)NNc1ccccc1 | 114 | –
18 | > 5 | 7 | CC(C)C[C@H](NC(=O)[C@H](CC(C)C)NC(=O)N1CCOCC1)C(=O)N[C@H](C(=O)N1CCN=C1COc1ccc(F)cc1)c1ccccc1 | – | –
19 | > 5 | 1.8 | CC(C)C[C@H](NC(=O)[C@H](CC(C)C)NC(=O)N1CCOCC1)C(=O)N[C@@H](Cc1c[nH]c2ccccc12)C(=O)N1CCN=C1COc1ccc(F)cc1 | – | –
20 | 17.5 | 10.6 | CC(C)C[C@H](NC(=O)CN1CCN(C)CC1)C(=O)N[C@@H](CC(C)C)C(=O)N[C@@H](Cc1c[nH]c2ccccc12)C(=O)N1CCN=C1COc1ccc(F)cc1 | – | –
21 | 10 | 13.6 | CC(C)C[C@H](NC(=O)CN1CCC(O)CC1)C(=O)N[C@@H](CC(C)C)C(=O)N[C@@H](Cc1c[nH]c2ccccc12)C(=O)N1CCN=C1COc1ccc(F)cc1 | – | –
22 | – | > 100 | COC(=O)C1CCN(CC(=O)N[C@@H](CC(C)C)C(=O)N[C@@H](CC(C)C)C(=O)N[C@H](C(=O)N2CCC[C@H]2COc2ccc(F)cc2)c2ccccc2)CC1 | – | IC50 (Plasmodium falciparum [1]): Not Active
23 | – | > 10 | CC(C)C[C@H](NC(=O)CN1CCN(C)CC1)C(=O)N[C@@H](CC(C)C)C(=O)N[C@H](C(=O)N1CCC[C@H]1COc1ccc(F)cc1)c1ccccc1 | – | IC50 (Plasmodium falciparum [1]): Not Active
